Assay results published in patent US20260250318A1, “COMPOSITIONS AND METHODS FOR CROSSING THE BLOOD BRAIN BARRIER” (VOYAGER THERAPEUTICS, INC., priority 2022, published 2026).

What was measured:
[1] = test system: brains, heart, liver, muscle, and DRG of the NHPs; test: Maturation of TTM-001 and TTM-002 capsids, NGS enrichment in NHP tissues; format: in vivo; settings: relative to AAV9 control
Method in brief: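 Variants carry mutations within and flanking the loop IV peptide insert: positions 450–466 were triplet-randomized, while positions 449–466 received low-frequency point mutations. The combined pool went into two NHPs, and each peptide was scored by NGS enrichment ratio against AAV9.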

brain = test: Matured TTM-001 and TTM-002 variants, NGS enrichment in mouse brain; format: in vivo, mice; settings: relative to AAV9 control
[2] = NGS fold-enrichment, DRG of NHPs
[3] = NGS fold-enrichment, RNA, brain of NHPs
[4] = NGS fold-enrichment, heart of NHPs
[5] = NGS fold-enrichment, liver DNA of NHPs
[6] = NGS fold-enrichment, liver RNA of NHPs
[7] = NGS fold-enrichment, muscle of NHPs
[8] = NGS fold-enrichment, brain of mice
[9] = NGS fold-enrichment of matured AAV capsid variants, NHP brain, RNA
[10] = NGS fold-enrichment of RNA, NHP brain
[11] = NGS fold-enrichment, NHP liver DNA
[12] = NGS fold-enrichment, NHP liver RNA
[13] = NGS fold-enrichment, NHP muscle
[14] = NGS fold-enrichment, mouse brain

Row | Sequence | Fold Enrichment relative to AAV9, DRG (NHP) [1, 2] [fold] | Fold Enrichment relative to AAV9, Brain (NHP) [1, 3] [fold] | Fold Enrichment relative to AAV9, Heart (NHP) [1, 4] [fold] | Fold Enrichment relative to AAV9, Liver DNA (NHP) [1, 5] [fold] | Fold Enrichment relative to AAV9, Liver RNA (NHP) [1, 6] [fold] | Fold Enrichment relative to AAV9, Muscle (NHP) [1, 7] [fold] | Fold Enrichment relative to AAV9, Brain (Mouse) (brain; [8]) [fold] | Fold Enrichment relative to AAV9, Brain (NHP) [1, 9] [fold] | Fold Enrichment relative to AAV9, DRG (NHP) ([1]; NHP DRG) [fold] | Fold Enrichment relative to AAV9, Heart (NHP) ([1]; NHP heart) [fold] | Fold Enrichment relative to AAV9, Liver DNA (NHP) ([1]; NHP liver, DNA) [fold] | Fold Enrichment relative to AAV9, Liver RNA (NHP) ([1]; NHP liver, RNA) [fold] | Fold Enrichment relative to AAV9, Muscle (NHP) ([1]; NHP muscle) [fold] | Fold Enrichment relative to AAV9, Brain (Mouse) (brain; mouse brain) [fold] | other results
1 | KTERMSGSPHSKAQNQQT | 0.000 | 74.910 | 0.000 | 0.151 | 0.100 | 0.000 | 122.812 | – | – | – | – | – | – | – | –
2 | KTINGSGSPHSKARDWQT | – | – | – | – | – | – | – | 58.216 | 0.000 | 0.005 | 0.259 | 0.800 | 0.000 | 120.704 | –
3 | KTERSSGSPHSKAQNQQT | 0.000 | 74.853 | 0.071 | 0.056 | 1.036 | 0.000 | 125.538 | – | – | – | – | – | – | – | –
4 | KTINGSGSPHSKAPSNQT | – | – | – | – | – | – | – | 52.680 | 1.494 | 4.762 | 0.208 | 0.330 | 0.003 | 87.951 | –
5 | KTEQTSGSPHSKAQNQQT | – | – | – | – | – | – | – | 56.683 | 0.000 | 0.045 | 0.430 | 0.792 | 0.000 | 59.360 | –
6 | KTERLSGSPHSKAQNQQT | 0.000 | 95.857 | 0.004 | 0.260 | 0.126 | 0.005 | 102.372 | – | – | – | – | – | – | – | Fold Enrichment relative to AAV9, Brain (NHP) [1, 10]: 95.857 fold; Fold Enrichment relative to AAV9, DRG (NHP) ([1]; NGS fold-enrichment, NHP DRG): 0.000 fold; Fold Enrichment relative to AAV9, Heart (NHP) ([1]; NGS fold-enrichment, NHP heart): 0.004 fold; Fold Enrichment relative to AAV9, Liver DNA (NHP) [1, 11]: 0.260 fold; Fold Enrichment relative to AAV9, Liver RNA (NHP) [1, 12]: 0.126 fold; Fold Enrichment relative to AAV9, Muscle (NHP) [1, 13]: 0.005 fold; Fold Enrichment relative to AAV9, Brain (Mouse) (brain; [14]): 102.372 fold
7 | KAVNGHDSPHKSVQNQQT | – | – | – | – | – | – | – | – | – | – | – | – | – | – | Fold Enrichment relative to AAV9, Brain (NHP) [1, 10]: 81.051 fold; Fold Enrichment relative to AAV9, DRG (NHP) ([1]; NGS fold-enrichment, NHP DRG): 0.448 fold; Fold Enrichment relative to AAV9, Heart (NHP) ([1]; NGS fold-enrichment, NHP heart): 0.051 fold; Fold Enrichment relative to AAV9, Liver DNA (NHP) [1, 11]: 0.091 fold; Fold Enrichment relative to AAV9, Liver RNA (NHP) [1, 12]: 0.665 fold; Fold Enrichment relative to AAV9, Muscle (NHP) [1, 13]: 0.000 fold; Fold Enrichment relative to AAV9, Brain (Mouse) (brain; [14]): 11.288 fold
8 | KTINGSGSPHSKVPNLQT | – | – | – | – | – | – | – | 57.046 | 0.000 | 0.029 | 0.082 | 0.459 | 0.000 | 50.474 | –
9 | KTVHGNGSPHSKAQNQQT | 0.000 | 90.073 | 0.000 | 0.304 | 0.000 | 0.000 | 97.003 | – | – | – | – | – | – | – | Fold Enrichment relative to AAV9, Brain (NHP) [1, 10]: 90.073 fold; Fold Enrichment relative to AAV9, DRG (NHP) ([1]; NGS fold-enrichment, NHP DRG): 0.000 fold; Fold Enrichment relative to AAV9, Heart (NHP) ([1]; NGS fold-enrichment, NHP heart): 0.000 fold; Fold Enrichment relative to AAV9, Liver DNA (NHP) [1, 11]: 0.304 fold; Fold Enrichment relative to AAV9, Liver RNA (NHP) [1, 12]: 0.000 fold; Fold Enrichment relative to AAV9, Muscle (NHP) [1, 13]: 0.000 fold; Fold Enrichment relative to AAV9, Brain (Mouse) (brain; [14]): 97.003 fold
10 | KTEARSGSPHSKAQNQQT | 0.000 | 73.349 | 0.000 | 0.118 | 0.695 | 0.000 | 62.903 | – | – | – | – | – | – | – | –
11 | KTDNGSGSPHSKAHNQQT | 0.000 | 95.164 | 0.000 | 0.027 | 0.000 | 0.000 | 55.313 | – | – | – | – | – | – | – | Fold Enrichment relative to AAV9, Brain (NHP) [1, 10]: 95.164 fold; Fold Enrichment relative to AAV9, DRG (NHP) ([1]; NGS fold-enrichment, NHP DRG): 0.000 fold; Fold Enrichment relative to AAV9, Heart (NHP) ([1]; NGS fold-enrichment, NHP heart): 0.000 fold; Fold Enrichment relative to AAV9, Liver DNA (NHP) [1, 11]: 0.027 fold; Fold Enrichment relative to AAV9, Liver RNA (NHP) [1, 12]: 0.000 fold; Fold Enrichment relative to AAV9, Muscle (NHP) [1, 13]: 0.000 fold; Fold Enrichment relative to AAV9, Brain (Mouse) (brain; [14]): 55.313 fold
12 | KTINGSGSPHSKAQAFHT | 0.033 | 70.159 | 0.000 | 0.119 | 0.762 | 0.058 | 86.268 | – | – | – | – | – | – | – | –
13 | KTELTSGSPHSKAQNQQT | 0.000 | 74.548 | 0.000 | 0.421 | 0.537 | 0.000 | 100.311 | – | – | – | – | – | – | – | –
14 | KTINGTGSPHSKAQNQQM | 0.000 | 62.151 | 0.000 | 0.000 | 0.000 | 0.000 | 62.376 | – | – | – | – | – | – | – | –
15 | KTVNGNGSPHSKSQNQQT | – | – | – | – | – | – | – | 54.586 | 0.000 | 0.000 | 0.168 | 0.256 | 0.000 | 95.384 | –
16 | KTEDKSGSPHSKAQNQQT | 0.000 | 68.813 | 0.000 | 0.000 | 0.000 | 0.000 | 70.071 | – | – | – | – | – | – | – | –
